Bounds are passed on as bounds.

In the first assay the test system is HER2. Put plainly: HER2 degradation assay with BT-474 cell line (Example 12, FACS). In kind it is cell-based, human.
Details: not given
From the text:
HER2 has emerged as a key target for anticancer drugs due to its intrinsic involvement in the phosphatidylinositol-3-kinase-Akt/protein kinase B (PI3K-Akt) and the mitogen-activated protein kinase (MAPK) pathways, both of which suppress apoptosis and promote tumor cell survival, gene transcription, angiogenesis, cellular proliferation, migration, mitosis, and differentiation. The degradation of HER2 is a measure of efficacy of anticancer therapeutics that target Hsp90. Accordingly, the SDC-TRAP molecules of the invention that comprise a binding moiety that binds Hsp90 were tested in the following HER2 degradation assay.
BT-474 cells (human breast cancer cell line ATCC HTB-20) were obtained from ATCC and seeded into 12-well tissue culture plates at 0.2×10^6/1.8 mL/well. […] Each test compound was titrated in 4-fold dilutions from 5 μM to 78 nM with DMSO and 200 μL of the titration was added to each well of the cell plate. The DMSO final concentration was 0.2%. Cells were incubated overnight at 37° C. in 5% CO2.
Media was decanted from the plate, cells were washed 1× in PBS. 400 μL trypsin (EDTA) per well was added, and the cells were incubated for 2 to 3 minutes. Cells were collected into FACS tubes containing 1 ml culture medium to neutralize the trypsin and were centrifuged for 5 minutes at 1200 rpm. Supernatant was decanted and the cells were resuspended in 5 μL FITC (anti HER2/nu)/200 μL staining buffer (1×PBS+1% FBS+0.05% Sodium Azide)/tube. Controls were 5 μL IgG isotype control and staining buffer only. Tubes were incubated for 30 minutes in the dark at room temperature. 1 mL staining buffer was added to each tube and the tubes were centrifuged for 6 minutes at 1200 rpm. The supernatant was decanted and 300 μL staining buffer was added to each tube, which was store at 4° C. fpr FACS (cytometer) analysis. The cytometer readout was normalized and the potency of each compound is evaluated with IC50 calculated with XLfit™ software.
As usually defined, the IC50 is the concentration needed to halve the response being measured. A lower IC50 goes with greater potency in that assay. As to `CCc1c2c(nc3ccc(OC(=O)N4CCC(N5CCN(c6ccc(-n7c(O)nnc7-c7cc(C(C)C)c(O)cc7O)cc6)CC5)CC4)cc13)-c1cc3c(c(=O)n1C2)COC(=O)C3(O)CC` (stereo not shown) [SDC-TRAP-0101, 4,11-diethyl-4-hydroxy-3,14-dioxo-3,4,12,14-tetrahydro-1H-pyrano[3′,4′:6,7]indolizino[1,2-b]quinolin-9-yl 4-(4-(4-(3-(2,4-dihydroxy-5-isopropylphenyl)-5-hydroxy-4H-1,2,4-triazol-4-yl)phenyl)piperazin-1-yl)piperidine-1-carboxylate], inhibition was half-maximal at 280 nM (IC50). Consider `Cc1cc(C(=O)N2CCN(Cc3ccc(-n4c(O)nnc4-c4cc(C(C)C)c(O)cc4O)cc3F)CC2)cc(C)c1OC(=O)Nc1cccc2c1CN(C1CCC(=O)NC1=O)C2=O` (stereo not shown) [SDC-TRAP-0168, 4-(4-(4-(3-(2,4-dihydroxy-5-isopropylphenyl)-5-hydroxy-4H-1,2,4-triazol-4-yl)-2-fluorobenzyl)piperazine-1-carbonyl)-2,6-dimethylphenyl (2-(2,6-dioxopiperidin-3-yl)-1-oxoisoindolin-4-yl)carbamate], for which inhibition was half-maximal at 276 nM (IC50). In turn, `CCc1c2c(nc3ccc(OC(=O)N4CCC(CN5CCC(Cc6ccc(-n7c(O)nnc7-c7cc(C(C)C)c(O)cc7O)cc6)CC5)CC4)cc13)-c1cc3c(c(=O)n1C2)COC(=O)C3(O)CC` (stereo not shown) [SDC-TRAP-0067, 4,11-diethyl-4-hydroxy-3,14-dioxo-3,4,12,14-tetrahydro-1H-pyrano[3′,4′:6,7]indolizino[1,2-b]quinolin-9-yl 4-((4-(4-(3-(2,4-dihydroxy-5-isopropylphenyl)-5-hydroxy-4H-1,2,4-triazol-4-yl)benzyl)piperidin-1-yl)methyl)piperidine-1-carboxylate] had an IC50 of 196 nM. `CCNC(=O)c1nnc(-c2cc(C(C)C)c(O)cc2O)n1-c1ccc(C(=O)N2CCN(c3ccc(OC(=O)Nc4cccc5c4CN(C4CCC(=O)NC4=O)C5=O)cc3)CC2)cc1` (stereo not shown) gave an IC50 of 254 nM. For the molecule `CCc1c2c(nc3ccc(OC(=O)N(C)CCCN4CCN(Cc5ccc(-n6c(O)nnc6-c6cc(C(C)C)c(O)cc6O)cc5)CC4)cc13)-c1cc3c(c(=O)n1C2)COC(=O)[C@]3(O)CC` [SDC-TRAP-0065, (S)-4,11-diethyl-4-hydroxy-3,14-dioxo-3,4,12,14-tetrahydro-1H-pyrano[3′,4′:6,7]indolizino[1,2-b]quinolin-9-yl (3-(4-(4-(3-(2,4-dihydroxy-5-isopropylphenyl)-5-hydroxy-4H-1,2,4-triazol-4-yl)benzyl)piperazin-1-yl)propyl)(methyl)carbamate], the IC50 was determined as 661 nM. Consider `CCNC(=O)c1nnc(-c2cc(C(C)C)c(O)cc2O)n1-c1ccc(C(=O)N2CCN(c3ccc(OC(=O)Nc4cccc5c4CN(C4CCC(=O)NC4=O)C5=O)c(C)c3)CC2)cc1` (stereo not shown) [SDC-TRAP-0176, 4-(4-(4-(3-(2,4-dihydroxy-5-isopropylphenyl)-5-(ethylcarbamoyl)-4H-1,2,4-triazol-4-yl)benzoyl)piperazin-1-yl)-2-methylphenyl (2-(2,6-dioxopiperidin-3-yl)-1-oxoisoindolin-4-yl)carbamate], for which the IC50 turned out to be 178 nM. Turning to `CCc1c2c(nc3ccc(OC(=O)N4CCN(Cc5cc6cc(-n7c(O)nnc7-c7cc(C(C)C)c(O)cc7O)ccc6n5C)CC4)cc13)-c1cc3c(c(=O)n1C2)COC(=O)C3(O)CC` (stereo not shown) [SDC-TRAP-0073, 4,11-diethyl-4-hydroxy-3,14-dioxo-3,4,12,14-tetrahydro-1H-pyrano[3′,4′:6,7]indolizino[1,2-b]quinolin-9-yl 4-((5-(3-(2,4-dihydroxy-5-isopropylphenyl)-5-hydroxy-4H-1,2,4-triazol-4-yl)-1-methyl-1H-indol-2-yl)methyl)piperazine-1-carboxylate], half-maximal inhibition (IC50) required 478 nM.

In the case of `CCc1c2c(nc3ccc(O)cc13)-c1cc3c(c(=O)n1C2)COC(=O)C3(CC)OC(=O)C1CCN(C(=O)Cc2ccc(-n3c(O)nnc3-c3cc(C(C)C)c(O)cc3O)cc2)CC1` (stereo not shown) [SDC-TRAP-0097, 4,11-diethyl-9-hydroxy-3,14-dioxo-3,4,12,14-tetrahydro-1H-pyrano[3′,4′:6,7]indolizino[1,2-b]quinolin-4-yl 1-(2-(4-(3-(2,4-dihydroxy-5-isopropylphenyl)-5-hydroxy-4H-1,2,4-triazol-4-yl)phenyl)acetyl)piperidine-4-carboxylate], the IC50 is greater than 5000 nM. As for `CCc1c2c(nc3ccc(OC(C)=O)cc13)-c1cc3c(c(=O)n1C2)COC(=O)C3(CC)OC(=O)N(C)CCCCN1CCN(Cc2ccc(-n3c(O)nnc3-c3cc(C(C)C)c(O)cc3O)cc2)CC1` (stereo not shown) [SDC-TRAP-0181, 4-(((4-(4-(4-(3-(2,4-Dihydroxy-5-isopropylphenyl)-5-hydroxy-4H-1,2,4-triazol-4-yl)benzyl)piperazin-1-yl)butyl)(methyl)carbamoyl)oxy)-4,11-diethyl-3,14-dioxo-3,4,12,14-tetrahydro-1H-pyrano[3′,4′:6,7]indolizino[1,2-b]quinolin-9-yl acetate], 164 nM corresponded to half-maximal inhibition (IC50). Take `CCc1c2c(nc3ccc(OC(C)=O)cc13)-c1cc3c(c(=O)n1C2)COC(=O)C3(CC)OC(=O)N1CCN(Cc2ccc(-n3c(O)nnc3-c3cc(C(C)C)c(O)cc3O)cc2)CC1` (stereo not shown) [SDC-TRAP-0074, 9-acetoxy-4,11-diethyl-3,14-dioxo-3,4,12,14-tetrahydro-1H-pyrano[3′,4′:6,7]indolizino[1,2-b]quinolin-4-yl 4-(4-(3-(2,4-dihydroxy-5-isopropylphenyl)-5-hydroxy-4H-1,2,4-triazol-4-yl)benzyl) piperazine-1-carboxylate]: it took 4120 nM to reach half-maximal inhibition (IC50).

Take `COc1ccc(/C=C\c2cc(OC)c(OC)c(OC)c2)cc1OC(=O)N1CCN(Cc2ccc(-n3c(O)nnc3-c3cc(C(C)C)c(O)cc3O)cc2)CC1` [SDC-TRAP-0085, (Z)-2-methoxy-5-(3,4,5-trimethoxystyryl)phenyl 4-(4-(3-(2,4-dihydroxy-5-isopropylphenyl)-5-hydroxy-4H-1,2,4-triazol-4-yl)benzyl) piperazine-1-carboxylate]: the midpoint of inhibition, the IC50, lay at 889 nM. With `CC(C)c1cc(-c2nnc(O)n2-c2ccc(CN3CCN(C(=O)Oc4ccc5c(c4)C[C@@H](CCCCCCCCC[S+]([O-])CCCC(F)(F)C(F)(F)F)[C@@H]4[C@@H]5CC[C@]5(C)[C@@H](O)CC[C@@H]45)CC3)cc2)c(O)cc1O` (stereo partly drawn) [SDC-TRAP-0148, (7R,8R,9S,13S,14S,17S)-17-hydroxy-13-methyl-7-(9-((4,4,5,5,5-pentafluoropentyl)sulfinyl)nonyl)-7,8,9,11,12,13,14,15,16,17-decahydro-6H-cyclopenta[a]phenanthren-3-yl 4-(4-(3-(2,4-dihydroxy-5-isopropylphenyl)-5-hydroxy-4H-1,2,4-triazol-4-yl)benzyl)piperazine-1-carboxylate], the IC50 amounted to 3040 nM.

The molecule `CCNC(=O)c1nnc(-c2cc(C(C)C)c(O)cc2O)n1-c1ccc(OC2CCN(C(=O)[C@@H]3CCCN3C(=O)O[C@]3(CC)C(=O)OCc4c3cc3n(c4=O)Cc4c-3nc3ccc(O)cc3c4CC)CC2)cc1` [SDC-TRAP-0214, (S)—(S)-4,11-diethyl-9-hydroxy-3,14-dioxo-3,4,12,14-tetrahydro-1H-pyrano[3′,4′:6,7]indolizino[1,2-b]quinolin-4-yl 2-(4-(4-(3-(2,4-dihydroxy-5-isopropylphenyl)-5-(ethylcarbamoyl)-4H-1,2,4-triazol-4-yl)phenoxy)piperidine-1-carbonyl)pyrrolidine-1-carboxylate] displayed an IC50 greater than 5000 nM.

Take `CCc1c2c(nc3ccc(O)cc13)-c1cc3c(c(=O)n1C2)COC(=O)C3(CC)OC(=O)C1CCN(C(=O)CN2CCN(c3ccc(-n4c(O)nnc4-c4cc(C(C)C)c(O)cc4O)cc3)CC2)CC1` (stereo not shown) [SDC-TRAP-0111, 4,11-Diethyl-9-hydroxy-3,14-dioxo-3,4,12,14-tetrahydro-1H-pyrano[3′,4′:6,7]indolizino[1,2-b]quinolin-4-yl 1-(2-(4-(4-(3-(2,4-dihydroxy-5-isopropylphenyl)-5-hydroxy-4H-1,2,4-triazol-4-yl)phenyl)piperazin-1-yl)acetyl)piperidine-4-carboxylate]: the IC50 is greater than 5000 nM.

In turn, `CCc1c2c(nc3ccc(OC(=O)N4Cc5ccc(-n6c(O)nnc6-c6cc(C(C)C)c(O)cc6O)cc5C4)cc13)-c1cc3c(c(=O)n1C2)COC(=O)C3(O)CC` (stereo not shown) [SDC-TRAP-0083, 4,11-diethyl-4-hydroxy-3,14-dioxo-3,4,12,14-tetrahydro-1H-pyrano[3′,4′:6,7]indolizino[1,2-b]quinolin-9-yl 5-(3-(2,4-dihydroxy-5-isopropylphenyl)-5-hydroxy-4H-1,2,4-triazol-4-yl)isoindoline-2-carboxylate] showed a 50% inhibitory concentration (IC50) of 1440 nM.

Staying with this assay, now noted: BT-474 cells, overnight.
With `CCOC(=O)c1nnc(-c2cc(C(C)C)c(O)cc2O)n1-c1ccc(CN2CCC(C(=O)N[C@H]3C[C@H](O[C@H]4C[C@](O)(C(=O)CO)Cc5c(O)c6c(c(O)c54)C(=O)c4c(OC)cccc4C6=O)O[C@@H](C)[C@H]3O)CC2)cc1` [SDC-TRAP-0142, ethyl-5-(2,4-dihydroxy-5-isopropylphenyl)-4-(4-((4-(((2S,3S,4S,6R)-3-hydroxy-2-methyl-6-(((1S,3S)-3,5,12-trihydroxy-3-(2-hydroxyacetyl)-10-methoxy-6,11-dioxo-1,2,3,4,6,11-hexahydrotetracen-1-yl)oxy)tetrahydro-2H-pyran-4-yl)carbamoyl)piperidin-1-yl)methyl)phenyl)-4H-1,2,4-triazole-3-carboxylate], the IC50 is greater than 10000 nM.

The values above are taken from US10828315B2 (Madrigal Pharmaceuticals, Inc., priority 2013, dated 2020).
